# Where two headings read alike, the source gives them in different places.
# How the values were obtained:
# [1] = Pharmacokinetics of sorafenib and sorafenib N-oxide in rat plasma (HPLC-UV), sorafenib alone or with morphine; conditions: for increase of AUC0–t in the presence of morphine / increase of Cmax in the presence of morphine: ISOR+MF vs. IISOR, rats; for ratio sorafenib N-oxide/sorafenib, Cmax: metabolite/parent ratio; for AUC0–t / AUC0–∞ / Cmax: rat plasma; for Cmax: mean ± SD
# Experimental: (§1) The supernatant volume for each time point used to prepare the HPLC sample was 20 μL.
# (§2) An ammonium acetate 0.1 M, pH = 3.4 (eluent A) and acetonitrile (eluent B) (1:1, v/v) solution were used as a mobile phase. The flow rate was set at 1.0 mL/min. […] Lapatinib was used as the internal standard (IS).
# [2] = rat, in vivo
# Experimental: as §1, §2
# in vivo = conditions: male, Wistar, rat, po, 100 mg/kg, Cl/F (apparent plasma clearance)
# Experimental: as §1, §2
# [3] = geometric mean ratio of the metabolite/parent ratio
# [4] = geometric mean ratio, sorafenib + morphine vs. sorafenib alone
# [5] = sorafenib 100 mg/kg p.o. + morphine 5 mg/kg i.p. (ISOR+MF, n = 8)
# [6] = sorafenib 100 mg/kg p.o. alone (IISOR, n = 8)
structure (smiles),measurement,setting,value
CNC(=O)c1cc(Oc2ccc(NC(=O)Nc3ccc(Cl)c(C(F)(F)F)c3)cc2)cc[n+]1[O-] [sorafenib N-oxide],increase of AUC0–t in the presence of morphine,[1],61.9%
same,increase of Cmax in the presence of morphine,[1],145.5%
same,increase of AUC0–t in the presence of morphine,[1]; 'higher by',0.6 fold
same,increase of Cmax in the presence of morphine,[1]; 'higher by',1.5 fold
same,"ratio sorafenib N-oxide/sorafenib, AUC0–t: Gmean ratio (90% CI) ISOR+MF vs. IISOR",[1]; [3],1.07 (0.70; 1.65)
same,"ratio sorafenib N-oxide/sorafenib, AUC0–∞: Gmean ratio (90% CI) ISOR+MF vs. IISOR",[1]; [3],0.89 (0.53; 1.51)
same,"ratio sorafenib N-oxide/sorafenib, Cmax: Gmean ratio (90% CI) ISOR+MF vs. IISOR",[1]; [3],1.03 (0.67; 1.61)
same,AUC0–t Gmean ratio (90% CI) ISOR+MF vs. IISOR,[1]; [4],1.64 (1.14; 2.36)
same,AUC0–∞ Gmean ratio (90% CI) ISOR+MF vs. IISOR,[1]; [4],1.41 (0.95; 2.08)
same,Cmax Gmean ratio (90% CI) ISOR+MF vs. IISOR,[1]; [4],2.15 (1.50; 3.08)
same,kel Gmean ratio (90% CI) ISOR+MF vs. IISOR,[1]; [4],0.80 (0.47; 1.36)
same,t1/2 Gmean ratio (90% CI) ISOR+MF vs. IISOR,[1]; [4],1.25 (0.73; 2.13)
same,tmax Gmean ratio (90% CI) ISOR+MF vs. IISOR,[1]; [4],0.76 (0.41; 1.39)
same,"ratio sorafenib N-oxide/sorafenib, Cmax","[1]; sorafenib + morphine (ISOR+MF, n = 8)",0.09 ± 0.07 (76.2) µg/mL
same,"ratio sorafenib N-oxide/sorafenib, Cmax","[1]; sorafenib alone (IISOR, n = 8)",0.07 ± 0.02 (26.8) µg/mL
same,AUC0–t,[1]; [5],6.64 ± 2.44 (36.8) µg × h/mL
same,AUC0–∞,[1]; [5],9.39 ± 2.97 (31.6) µg × h/mL
same,Cmax,[1]; [5],0.27 ± 0.16 (57.5) µg/mL
same,AUC0–t,[1]; [6],4.10 ± 1.56 (38.1) µg × h/mL
same,AUC0–∞,[1]; [6],8.61 ± 2.19 (25.4) µg × h/mL
same,Cmax,[1]; [6],0.11 ± 0.02 (21.8) µg/mL
same,kel (elimination rate constant),[1]; [5],0.023 ± 0.012 (51.6) h^−1
same,t1/2 (elimination phase),[1]; [5],39.30 ± 22.54 (57.4) h
same,tmax,[1]; [5],14.50 ± 11.40 (78.6) h
same,kel (elimination rate constant),[1]; [6],0.016 ± 0.010 (60.9) h^−1
same,t1/2 (elimination phase),[1]; [6],53.31 ± 25.23 (47.3) h
same,tmax,[1]; [6],16.38 ± 8.21 (50.1) h
CNC(=O)c1cc(Oc2ccc(NC(=O)Nc3ccc(Cl)c(C(F)(F)F)c3)cc2)ccn1 [sorafenib],lower clearance in the ISOR+MF group,"[2]; male, Wistar",0.4 fold
same,AUC0–∞,"[2]; male, Wistar, po, 100 mg/kg",67050 ± 16700 ng·h/mL
same,AUC0–t/(D/kg),[2],1.25 ± 0.32 µg·kg·h/mL/mg
same,AUC0–∞/(D/kg),[2],1.33 ± 0.33 µg·kg·h/mL/mg
same,adverse effects,"[2]; po, 100 mg/kg",did not cause any adverse effects
same,CL/F,in vivo,13.3 mL/min/kg

# Reference: publication PMC8707786 (Pharmaceutics, 2021)
